Assay results taken from patent publication US20200283482A1, “BICYCLIC PEPTIDE LIGAND PRR-A CONJUGATES AND USES THEREOF” (BicycleRD Limited, priority 2017, published 2020).
Starred links: 1 amine or outer side, 2 acyl side, 3 side chain; linkers in the order of their positions; H or OH if unused. Positions of bridges follow the written chain, without caps; N, C: chain ends. Non-standard residues stand in square brackets, D forms with d. Residues, ends and D or L forms follow the SMILES beside them. *: point of attachment. X1 = CCOCc1nc2c(NC(=O)OCCSSC(C)CCC(=O)*)nc3ccccc3c2n1CC(C)(C)O; 1Nal = N[C@@H](Cc1cccc2ccccc12)C(=O)O; TBMB = c1c(C[*:1])cc(C[*:3])cc1C[*:2]; Tle = CC(C)(C)[C@H](N)C(=O)O; βAla = NCCC(=O)O; Sar = CNCC(=O)O

Experiments:
B16F10 xenograft = assay: In vivo efficacy of I-8 alone or with antiPD-1 mAb in B16F10 xenograft; design: species or system C57BL/6J mice
Protocol: B16F10 tumor cells were maintained in vitro as a monolayer culture in EMEM medium supplemented with 10% heat inactivated fetal bovine serum at 37° C. in an atmosphere of 5% CO2 in air. The tumor cells were routinely subcultured twice weekly by trypsin-EDTA treatment. The cells growing in an exponential growth phase were harvested and counted for tumor inoculation.
6-8 week old female C57BL/6J mice were inoculated subcutaneously at the right flank with B16F10 tumor cells (5×10^5) in 0.1 ml of PBS for tumor development. Animals were randomized when the average tumor volume reached 65 mm^3.
Conjugates were formulated in 25 mM Histidine, 10% sucrose pH=7 buffer (vehicle) and administered intravenously. Anti-PD1 antibody (Wuxi AppTech, Shanghai, China) was formulated in aqueous buffer and administered intraperitoneally.
Tumor volume was measured three times weekly in two dimensions using a caliper, and the volume was expressed in mm^3 using the formula: V=0.5 a×b^2 where a and b are the long and short diameters of the tumor, respectively. The tumor size was then used for calculations of T/C value. The T/C value (in percent) is an indication of antitumor effectiveness; T and C are the mean volumes of the treated and control groups, respectively, on a given day.
TGI was calculated for each group using the formula: TGI (%)=[1−(Ti−T0)/(Vi−V0)]×100; Ti is the average tumor volume of a treatment group on a given day, T0 is the average tumor volume of the treatment group on the day of treatment start, Vi is the average tumor volume of the vehicle control group on the same day with Ti, and V0 is the average tumor volume of the vehicle group on the day of treatment start.
Summary statistics, including mean and the standard error of the mean (SEM), are provided for the tumor volume of each group at each time point.
Statistical analysis of difference in tumor volume among the groups was conducted on the data obtained at the best therapeutic time point after the final dose.
A one-way ANOVA was performed to compare tumor volume among groups, and when a significant F-statistics (a ratio of treatment variance to the error variance) was obtained, comparisons between groups were carried out with Games-Howell test. All data were analyzed using Prism. P<0.05 was considered to be statistically significant.

Plasma stability, human = type: in vitro ADME; details: pH 7.4; human plasma, 2 μM, 37° C.; read-out: T1/2 (human)
[1] = Plasma pharmacokinetics of Bicycle conjugates in CD-1 mice; type: in vivo; details: 3 mg/kg IV, male CD-1 mice
Protocol: Male CD-1 mice were dosed with 3 mg/kg of Bicycle Conjugate formulated in 25 mM Histidine HCl, 10% sucrose pH 7 via tail vein injection. Serial bleeding (about 80 μL blood/time point) was performed via submadibular or saphenous vein at each time point. All blood samples were immediately transferred into prechilled microcentrifuge tubes containing 2 μL K2-EDTA (0.5M) as anti-coagulant and placed on wet ice.

[2] = Study 2, day 9, I-8 20 mpk iv tiw, aPD1 10 mpk ip qw

In the case of `CCOCc1nc2c(NC(=O)OCCSSC(C)CCC(=O)NCCC(=O)N(C)CC(=O)N(C)CC(=O)N(C)CC(=O)N(C)CC(=O)N(C)CC(=O)N(C)CC(=O)N(C)CC(=O)N(C)CC(=O)N(C)CC(=O)N(C)CC(=O)N[C@@H](C)C(=O)N[C@H]3CSCc4cc5cc(c4)CSC[C@H](NC(=O)[C@@H](C)NC(=O)[C@H](Cc4cccc6ccccc46)NC(=O)[C@H](CCC(=O)O)NC(=O)[C@H](CC(N)=O)NC(=O)[C@@H](C)NC3=O)C(=O)N[C@@H](CCC(=O)O)C(=O)N[C@@H](CC(=O)O)C(=O)N[C@@H](Cc3ccccc3)C(=O)N[C@@H](Cc3ccc(O)cc3)C(=O)N[C@@H](CC(=O)O)C(=O)N[C@@H](C(C)(C)C)C(=O)N[C@H](C(N)=O)CSC5)nc3ccccc3c2n1CC(C)(C)O` (some centres unmarked) [I-8] ({X1-βAla}-[Sar][Sar][Sar][Sar][Sar][Sar][Sar][Sar][Sar][Sar]AC[dA]NE[1Nal][dA]CEDFYD[Tle]C-NH2; linker 12-18-25 via TBMB), the T/C (B16F10 xenograft; Study 1, 20 mpk iv tiw, day 9) is reported as 54.9%, the TGI (B16F10 xenograft; Study 1, 20 mpk iv tiw, day 9) is reported as 50.0% and the “Tumor Volume (Mean ± SEM)” value (B16F10 xenograft; Study 1, 20 mpk iv tiw, day 9) is reported as 356 ± 60 mm^3. For the same compound, the T/C (B16F10 xenograft; Study 1, 60 mpk iv tiw, day 9) was 25.6%, the TGI (B16F10 xenograft; Study 1, 60 mpk iv tiw, day 9) was 82.9% and the “Tumor Volume (Mean ± SEM)” value (B16F10 xenograft; Study 1, 60 mpk iv tiw, day 9) was 166 ± 26 mm^3. The T/C (B16F10 xenograft; [2]) was 86.8%, the TGI (B16F10 xenograft; [2]) was 13.7% and the “Tumor Volume (Mean ± SEM)” value (B16F10 xenograft; [2]) was 1678 ± 1129 mm^3. For the same compound, the half-life at 2 μM (Plasma stability, human) was 2 to 6 h and the systemic elimination [1] was “rapid systemic elimination”.
